Measurements published in patent publication US20230131899A1, “INHIBITORS OF MICROBIALLY INDUCED AMYLOID” (Axial Therapeutics, Inc., priority 2020, published 2023).
Read-outs that look alike come from different tables or passages of the source.

Target: T1, human α-synuclein (Homo sapiens, UniProt P37840)
T1 construct: the full-length gene for untagged human α-synuclein was inserted; made in house; host or cells: E. coli BL21(DE3), plasmid derived from pT7 or pET11a
Test: Cell-free Thioflavin T assay of α-synuclein aggregation (αSyn ThT Assay)
Assay type: biochemical
Conditions: αSyn 50 μM, compounds at 100 μM
How it was run: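 Inhibition is reported as 100% minus background-corrected ThT signal relative to vehicle wells, taken at 36, 47, 48 or 72 h or the last read. Reactions held 50 μM recombinant α-synuclein, 20-100 μM compound, 20-40 μM ThT and 1% DMSO. Incubation was at 37° C., shaken, with a glass bead.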

[1] = mean % inhibition of αSyn aggregation relative to DMSO control, read-out: αSyn ThT Assay % Inhibition
[2] = class symbol, read-out: αSyn ThT Assay % Inhibition (activity range)

Row | Compound | inhibition at 100 µM [1] [%] | inhibition at 100 µM [2] [%]
1 | O=C(O)C1CSc2c(-c3cccc(C(F)(F)F)c3)c(Cc3cccc4ccccc34)cc(=O)n21 (racemic) [Compound 011, 7-(naphthalen-1-ylmethyl)-5-oxo-8-(3-(trifluoromethyl)phenyl)-2,3-dihydro-5H-thiazolo[3,2-a]pyridine-3-carboxylic acid] | 56 | 31 to 60
2 | CCCN1CC(C(=O)O)n2c(c(-c3cccc(C(F)(F)F)c3)c(Cc3cccc4ccccc34)cc2=O)S1(=O)=O (racemic) [Compound 016, 8-(naphthalen-1-ylmethyl)-6-oxo-2-propyl-9-(3-(trifluoromethyl)phenyl)-3,4-dihydro-2H,6H-pyrido[1,2-e][1,2,5]thiadiazine-4-carboxylic acid 1,1-dioxide] | 68 | > 60
3 | Nc1c(Cc2cccc3ccccc23)c(-c2cccc(C(F)(F)F)c2)c2n(c1=O)C(C(=O)O)CS2 (racemic) [Compound 020, 6-amino-7-(naphthalen-1-ylmethyl)-5-oxo-8-(3-(trifluoromethyl)phenyl)-2,3-dihydro-5H-thiazolo[3,2-a]pyridine-3-carboxylic acid] | 53 | 31 to 60
4 | CCCCCN1CC(C(=O)O)n2c(c(-c3cccc(C(F)(F)F)c3)c(Cc3cccc4ccccc34)cc2=O)S1(=O)=O (racemic) [Compound 025, 8-(naphthalen-1-ylmethyl)-6-oxo-2-pentyl-9-(3-(trifluoromethyl)phenyl)-3,4-dihydro-2H,6H-pyrido[1,2-e][1,2,5]thiadiazine-4-carboxylic acid 1,1-dioxide] | 59 | 31 to 60
5 | O=C(O)C1C[S+]([O-])c2c(-c3cccc(C(F)(F)F)c3)c(Cc3cccc4ccccc34)cc(=O)n21 (racemic) [Compound 027b, 7-(naphthalen-1-ylmethyl)-5-oxo-8-(3-(trifluoromethyl)phenyl)-2,3-dihydro-5H-thiazolo[3,2-a]pyridine-3-carboxylic acid 1-oxide] | 4 | -10 to 10
6 | O=C(O)[C@@H]1CS(=O)(=O)c2c(-c3cccc(C(F)(F)F)c3)c(Cc3cccc4ccccc34)cc(=O)n21 (single isomer, unassigned) [Compound 010a, 7-(naphthalen-1-ylmethyl)-5-oxo-8-(3-(trifluoromethyl)phenyl)-2,3-dihydro-5H-thiazolo[3,2-a]pyridine-3-carboxylic acid 1,1-dioxide] | 41 | 31 to 60
7 | O=C(O)[C@H]1CS(=O)(=O)c2c(-c3cccc(C(F)(F)F)c3)c(Cc3cccc4ccccc34)cc(=O)n21 (single isomer, unassigned) [Compound 010b, 7-(naphthalen-1-ylmethyl)-5-oxo-8-(3-(trifluoromethyl)phenyl)-2,3-dihydro-5H-thiazolo[3,2-a]pyridine-3-carboxylic acid 1,1-dioxide] | 35 | 31 to 60
8 | O=C(O)C1CSc2c(-c3cccc(C(F)(F)F)c3)c(Cc3cccc4ccccc34)cc(=O)n21 (single isomer, unassigned) [Compound 011a, 7-(naphthalen-1-ylmethyl)-5-oxo-8-(3-(trifluoromethyl)phenyl)-2,3-dihydro-5H-thiazolo[3,2-a]pyridine-3-carboxylic acid] | 13 | 11 to 30
9 | CCN1CC(C(=O)O)n2c(c(-c3cccc(C(F)(F)F)c3)c(Cc3cccc4ccccc34)cc2=O)S1(=O)=O (single isomer, unassigned) [Compound 015a, 2-ethyl-8-(naphthalen-1-ylmethyl)-6-oxo-9-(3-(trifluoromethyl)phenyl)-3,4-dihydro-2H,6H-pyrido[1,2-e][1,2,5]thiadiazine-4-carboxylic acid 1,1-dioxide] | 62 | > 60
10 | COc1ccc(CN2C[C@@H](C(=O)O)n3c(c(-c4cccc(C(F)(F)F)c4)c(Cc4cccc5ccccc45)cc3=O)S2(=O)=O)cc1 (single isomer, unassigned) [Compound 026a] | 51 | 31 to 60
11 | CN(C)CCN1CC(C(=O)O)n2c(c(-c3cccc(C(F)(F)F)c3)c(Cc3cccc4ccccc34)cc2=O)S1(=O)=O (stereo not shown) [Compound 017, 2-(2-(dimethylamino)ethyl)-8-(naphthalen-1-ylmethyl)-6-oxo-9-(3-(trifluoromethyl)phenyl)-3,4-dihydro-2H,6H-pyrido[1,2-e][1,2,5]thiadiazine-4-carboxylic acid 1,1-dioxide] | 53 | 31 to 60
12 | O=C(O)CN1CC(C(=O)O)n2c(c(-c3cccc(C(F)(F)F)c3)c(Cc3cccc4ccccc34)cc2=O)S1(=O)=O (stereo not shown) [Compound 018, 2-(carboxymethyl)-8-(naphthalen-1-ylmethyl)-6-oxo-9-(3-(trifluoromethyl)phenyl)-3,4-dihydro-2H,6H-pyrido[1,2-e][1,2,5]thiadiazine-4-carboxylic acid 1,1-dioxide] | 22 | 11 to 30
13 | O=C(O)C1CSc2c(-c3cccc(C(F)(F)F)c3)c(Cc3cccc4ccccc34)nc(=O)n21 (stereo not shown) [Compound 022, 7-(naphthalen-1-ylmethyl)-5-oxo-8-(3-(trifluoromethyl)phenyl)-2,3-dihydro-5H-thiazolo[3,2-c]pyrimidine-3-carboxylic acid] | 49 | 31 to 60
14 | Nc1c(Cc2cccc3ccccc23)c(-c2cccc(C(F)(F)F)c2)c2n(c1=O)C(C(=O)O)CS2(=O)=O (stereo not shown) [Compound 023, 6-amino-7-(naphthalen-1-ylmethyl)-5-oxo-8-(3-(trifluoromethyl)phenyl)-2,3-dihydro-5H-thiazolo[3,2-a]pyridine-3-carboxylic acid 1,1-dioxide] | 21 | 11 to 30
15 | C=CCCN1CC(C(=O)O)n2c(c(-c3cccc(C(F)(F)F)c3)c(Cc3cccc4ccccc34)cc2=O)S1(=O)=O (stereo not shown) [Compound 024, 2-(but-3-en-1-yl)-8-(naphthalen-1-ylmethyl)-6-oxo-9-(3-(trifluoromethyl)phenyl)-3,4-dihydro-2H,6H-pyrido[1,2-e][1,2,5]thiadiazine-4-carboxylic acid 1,1-dioxide] | 69 | > 60
16 | NC(=O)CN1CC(C(=O)O)n2c(c(-c3cccc(C(F)(F)F)c3)c(Cc3cccc4ccccc34)cc2=O)S1(=O)=O (stereo not shown) [Compound 028, 2-(2-amino-2-oxoethyl)-8-(naphthalen-1-ylmethyl)-6-oxo-9-(3-(trifluoromethyl)phenyl)-3,4-dihydro-2H,6H-pyrido[1,2-e][1,2,5]thiadiazine-4-carboxylic acid 1,1-dioxide] | 33 | 31 to 60
17 | CN1CC(C(N)=O)n2c(c(-c3cccc(C(F)(F)F)c3)c(Cc3cccc4ccccc34)cc2=O)S1(=O)=O (stereo not shown) [Compound 030, 2-methyl-8-(naphthalen-1-ylmethyl)-6-oxo-9-(3-(trifluoromethyl)phenyl)-3,4-dihydro-2H,6H-pyrido[1,2-e][1,2,5]thiadiazine-4-carboxamide 1,1-dioxide] | 4 | -10 to 10
18 | CN1CC(C(=O)O)n2c(c(-c3cccc(C(F)(F)F)c3)c(Cc3cccc4ccccc34)c(N)c2=O)S1(=O)=O (stereo not shown) [Compound 074, 7-amino-2-methyl-8-(naphthalen-1-ylmethyl)-6-oxo-9-(3-(trifluoromethyl)phenyl)-3,4-dihydro-2H,6H-pyrido[1,2-e][1,2,5]thiadiazine-4-carboxylic acid 1,1-dioxide] | 38 | 31 to 60
19 | CN(C)Cc1c(Cc2cccc3ccccc23)c(-c2cccc(C(F)(F)F)c2)c2n(c1=O)C(C(=O)O)CS2 (stereo not shown) [Compound 075, 6-((dimethylamino)methyl)-7-(naphthalen-1-ylmethyl)-5-oxo-8-(3-(trifluoromethyl)phenyl)-2,3-dihydro-5H-thiazolo[3,2-a]pyridine-3-carboxylic acid] | 2 | -10 to 10
20 | CN1CC(C(=O)O)n2c(c(-c3cccc(C(F)(F)F)c3)c(Cc3cccc4ccccc34)c(C(N)=O)c2=O)S1(=O)=O (stereo not shown) [Compound 109, 7-carbamoyl-2-methyl-8-(naphthalen-1-ylmethyl)-6-oxo-9-(3-(trifluoromethyl)phenyl)-3,4-dihydro-2H,6H-pyrido[1,2-e][1,2,5]thiadiazine-4-carboxylic acid 1,1-dioxide] | 99 | > 60
21 | CCc1c(Cc2cccc3ccccc23)c(-c2cccc(C(F)(F)F)c2)c2n(c1=O)C(C(=O)O)CN(C1CCCCC1)S2(=O)=O (stereo not shown) [Compound 116, 2-cyclohexyl-7-ethyl-8-(naphthalen-1-ylmethyl)-6-oxo-9-(3-(trifluoromethyl)phenyl)-3,4-dihydro-2H,6H-pyrido[1,2-e][1,2,5]thiadiazine-4-carboxylic acid 1,1-dioxide] | 47 | 31 to 60
22 | CN1CC(C(=O)O)n2c1c(-c1cccc(C(F)(F)F)c1)c(Cc1cccc3ccccc13)c(Br)c2=O (stereo not shown) [Compound 119, 6-bromo-1-methyl-7-(naphthalen-1-ylmethyl)-5-oxo-8-(3-(trifluoromethyl)phenyl)-1,2,3,5-tetrahydroimidazo[1,2-a]pyridine-3-carboxylic acid] | 41 | 31 to 60
23 | O=C(O)C1CN(CCCO)S(=O)(=O)c2c(-c3cccc(C(F)(F)F)c3)c(Cc3cccc4ccccc34)c(NC3CCCC3)c(=O)n21 (stereo not shown) [Compound 120, 7-(cyclopentylamino)-2-(3-hydroxypropyl)-8-(naphthalen-1-ylmethyl)-6-oxo-9-(3-(trifluoromethyl)phenyl)-3,4-dihydro-2H,6H-pyrido[1,2-e][1,2,5]thiadiazine-4-carboxylic acid 1,1-dioxide] | 40 | 31 to 60
